Measured values taken from PubChem BioAssay (NCI).
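Method: 48-hour compound exposure of cells in 96-well plates, five concentrations, linear interpolation of endpoints. TGI is the concentration that stops growth completely.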

Tests used:
Assay in all cases: DTP human tumour cell line panel, 48 h
[1] = test system: BT-549 breast
[2] = test system: HCT-116 colon
[3] = test system: HOP-62 NSCLC
[4] = test system: K-562 leukemia
[5] = test system: KM12 colon
[6] = test system: MALME-3M melanoma
[7] = test system: MDA-N
[8] = test system: NCI-H23 lung
[9] = test system: OVCAR-4 ovarian
[10] = test system: OVCAR-8 ovarian
[11] = test system: SNB-19 CNS
[12] = test system: SW-620 colon
[13] = test system: T-47D breast
[14] = test system: UACC-62 melanoma
[15] = test system: UO-31 renal
[16] = test system: HCC-2998 colon
[17] = test system: HL-60(TB) leukemia

CC1=Nc2nc3ccccc3n2C(C)(C)C1
TGI [1]: > 100 µM
TGI [2]: > 100 µM
TGI [3]: > 100 µM
TGI [4]: > 100 µM
TGI [5]: > 100 µM
TGI [6]: > 100 µM
TGI [7]: > 100 µM
TGI [8]: > 100 µM
TGI [9]: > 100 µM
TGI [10]: > 100 µM
TGI [11]: > 100 µM
TGI [12]: > 100 µM
TGI [13]: > 100 µM
TGI [14]: > 100 µM
TGI [15]: > 100 µM

Cc1cccc2nc3n(c12)C(=O)c1ccccc1-3
TGI [1]: > 100 µM
TGI [16]: > 100 µM
TGI [2]: > 100 µM
TGI [17]: > 100 µM
TGI [3]: > 100 µM
TGI [4]: > 100 µM
TGI [5]: > 100 µM
TGI [6]: > 100 µM
TGI [7]: > 100 µM
TGI [8]: > 100 µM
TGI [9]: > 100 µM
TGI [10]: > 100 µM
TGI [11]: > 100 µM
TGI [12]: > 100 µM
TGI [14]: > 100 µM
TGI [15]: > 100 µM

COc1ccc(N2C(=O)CSC2c2cc3cc(Br)ccc3nc2Cl)cc1 (stereo unspecified)
TGI [1]: > 50 µM
TGI [16]: > 50 µM
TGI [2]: > 50 µM
TGI [17]: > 50 µM
TGI [3]: > 50 µM
TGI [4]: > 50 µM
TGI [5]: > 50 µM
TGI [6]: > 50 µM
TGI [8]: > 50 µM
TGI [9]: > 50 µM
TGI [10]: > 50 µM
TGI [11]: > 50 µM
TGI [12]: > 50 µM
TGI [13]: > 50 µM
TGI [14]: > 50 µM
TGI [15]: > 50 µM

COc1cc(C2c3cc4c(cc3OC3(O)COC(=O)C23)OCO4)cc(OC)c1OC (stereo unspecified)
TGI [16]: > 100 µM
TGI [2]: > 100 µM
TGI [17]: 97.7 µM
TGI [3]: > 100 µM
TGI [4]: > 100 µM
TGI [6]: > 100 µM
TGI [8]: > 100 µM
TGI [9]: > 100 µM
TGI [10]: > 100 µM
TGI [11]: > 100 µM
TGI [12]: > 100 µM
TGI [14]: > 100 µM
TGI [15]: > 100 µM

Cc1c2ccccc2c(CO)c2cc(F)c3ccccc3c12
TGI [16]: > 100 µM
TGI [2]: 40.3 µM
TGI [17]: 61 µM
TGI [3]: 92.9 µM
TGI [4]: > 100 µM
TGI [5]: 56.3 µM
TGI [6]: > 100 µM
TGI [8]: > 100 µM
TGI [9]: 98.2 µM
TGI [10]: 41.4 µM
TGI [11]: > 100 µM
TGI [12]: > 100 µM
TGI [14]: > 100 µM
TGI [15]: > 100 µM

CCCCC(NC(=O)CC)C(=O)O (stereo unspecified)
TGI [16]: > 31.6 µM
TGI [2]: > 100 µM
TGI [17]: > 100 µM
TGI [3]: > 100 µM
TGI [4]: > 100 µM
TGI [5]: > 100 µM
TGI [6]: > 100 µM
TGI [8]: > 100 µM
TGI [9]: > 100 µM
TGI [10]: > 100 µM
TGI [11]: > 100 µM
TGI [12]: > 100 µM
TGI [14]: > 100 µM
TGI [15]: > 100 µM

CN1C[C@H]2[C@@H](C1=O)[C@H](c1ccc([N+](=O)[O-])cc1)ON2C
TGI [16]: > 100 µM
TGI [2]: > 100 µM
TGI [17]: > 100 µM
TGI [3]: > 100 µM
TGI [4]: > 100 µM
TGI [7]: > 100 µM
TGI [8]: > 100 µM
TGI [9]: > 100 µM
TGI [10]: > 100 µM
TGI [11]: > 100 µM
TGI [12]: > 100 µM
TGI [13]: > 100 µM
TGI [15]: > 100 µM

OC(c1ccsc1)c1cc2ccccc2s1 (stereo unspecified)
TGI [16]: > 10 µM
TGI [2]: > 10 µM
TGI [17]: > 10 µM
TGI [3]: > 10 µM
TGI [4]: > 10 µM
TGI [5]: > 10 µM
TGI [7]: > 10 µM
TGI [8]: > 10 µM
TGI [9]: > 10 µM
TGI [10]: > 10 µM
TGI [11]: > 10 µM
TGI [12]: > 10 µM
TGI [13]: > 10 µM
TGI [14]: > 10 µM
TGI [15]: > 10 µM
